The results in this text go back to patent US11571446B2, “Gut microbiota and treatment of cancer” (Sanford Burnham Prebys Medical Discovery Institute, priority 2016, dated 2023).

For assay [1], the system named is tumor growth. Briefly: Fecal microbiota analysis of Rnf5−/− and WT tumor bearing mice. The conditions noted are these: Rnf5−/− vs WT microbiota. The assay is classed as in vivo, mouse. The procedure:
The fecal microbiota of Rnf5^−/− and WT mice were analyzed. […] Of those, increased relative abundance of several bacterial taxa (including Bacteroides spp., B. acidifaciens, B. chinchilla, B. xylanisolvens, Parabacteroides merdae, Porphyromonas canis, Rickenella microfusus) and decreased abundance of others (including unclassified Bifidobacterium spp., B. choerinum, Odoribacter denticanis, Parabacteroides goldsteinii, unclassified Olivibacter, Parapedobacter koreensis) typified the microbiome of Rnf5^−/− mice bearing tumors, compared with the WT genotype.
The fecal microbiota of Rnf5−/− and WT mice were further analyzed. Marked differences in the microbial profiles were observed, highlighting differences in community structure depicted in principle component analysis that distinctly segregated Rnf5^−/− from WT microbiota. Analysis of microbiota allowed the identification of 42 phylotypes that distinguished Rnf5^−/− and WT microbiota in tumor bearing mice (FIG. 7). These phylotypes are dominated by a few taxonomic groups, the largest of which fall into the Clostridium cluster (37%). All but four of these may be assigned to Clostrium cluster IV or XIVa, known to be capable of producing butyrate that may influence Foxp3^+ Treg cells expansion. […]

In assay [2] the test system is tumor growth. Briefly: Tumor growth in Rnf5−/− mice treated with chemical chaperone. In kind it is in vivo, mouse. The conditions noted are these: treatment to alleviate ER stress. From the text: To understand the mechanism by which altered function of Rnf5^−/− mice might influence the anti-tumor immune response, changes in the intestinal epithelial cells (IECs) were examined, which cells play critical roles in both innate and adaptive immunity.

Another assay concerns SW1 cells. Description: Growth of SW1 melanoma in TLR4 mutant C3H/HeJ mice given mucin or inulin. In kind it is in vivo, mouse. From the text: (§1) FIG. 6A depicts growth of SW1 TLR4-mutant tumor cells in C3H/HeJ TLR4 mutant mice provided with control diet, alone or with supplemented mucin or inulin starting 14 days prior to tumor inoculation (n=10). FIG. 6B depicts growth of MC-38 tumors in C57BL/6 mice (n=10) that received, starting 14 days prior to tumor inoculation, control diet, alone or with supplemented mucin or inulin. FIG. 6C depicts tumor volume in C57BL/6 mice (n=10 per group) injected (s.c.) with a melanoma cell line (N-Ras mutant; 1×10^6 cells). The mice were provided control or inulin or mucin supplemented diet. When tumors reached a volume of […], mice were treated with MEKi (PD325901) administered by gavage (10 mg/kg, daily), alone or in combination with inulin or mucin, as indicated. Tumor volume was assessed every 4 days.
To determine whether TLR4, the receptor for bacterial lipopolysaccharides, might be involved in the mucin-induced anti-tumor immune phenotype, the growth of mouse melanoma SW1 cells was examined in Tlr4^−/− C3H/HeJ mice.

The test system of assay [3] is tumor-infiltrating immune cells. Briefly: Tumor-infiltrating immune cells and immune gene transcription in mucin- or inulin-fed mice. The assay is classed as in vivo, mouse. The text has this:
To test this directly it was investigated whether administration of mucin to WT mice could phenocopy Rnf5^−/− mice, in terms of tumor growth, immune response and gut microbiota composition. […] This prompted us to use machine learning to identify phylotypes that best distinguished WT (non-attenuated tumor growth) from Rnf5^−/− and WT mice treated with mucin or inulin (attenuated tumor growth). […] The immune status of mucin and inulin-fed WT mice also shifted to resemble that of Rnf5′ mice.

Another assay has as its system YUMM1.5 melanoma cells. Briefly: YUMM1.5 melanoma tumor growth in WT or Rnf5−/− mice given mucin or inulin. The assay is classed as in vivo, mouse. The conditions noted are these: 3% mucin in drinking water or 15% inulin diet from 14 days prior to tumor inoculation. The text has this: (§2) FIG. 4A depicts plots of human fecal samples cultivated under anaerobic conditions in chemically defined medium with or without exogenous carbohydrate (n=6). Relative abundance of taxa encoding extensive glycosyl hydrolase activities. Cultures with no exogenous sugar were compared to cultures with N-acetyl-mannosamine, galactomannan and porcine gastric mucin. […] FIG. 4C depicts computer simulation identifies the uptake rates of mucin and inulin degradation products in the 2 media predicted to sustain the WT and Rnf5^−/− communities, showing higher predicted consumption of mucin and inulin products in the Rnf5^−/− community. FIG. 4D depicts YUMM1.5 tumor growth in WT or Rnf5^−/− mice provided with 0 or 3% mucin in drinking water starting 14 days prior to tumor inoculation (n=15). FIG. 4E depicts growth of Yumm1.5 tumors in WT or Rnf5^−/− received a control diet or a diet enriched 15% inulin 14 days prior to and during tumor inoculation (n=15). FIG. 4F depicts fold-changes of median abundances between Rnf5^−/−, mucin and inulin treated and WT mice, for 30 taxa that discriminate tumor attenuating and non-attenuating phenotypes.
To test this directly it was investigated whether administration of mucin to WT mice could phenocopy Rnf5^−/− mice, in terms of tumor growth, immune response and gut microbiota composition. […]

Another assay has as its system human fecal samples. Briefly: Anaerobic cultivation of fecal samples with a sole carbohydrate source. The assay is classed as cell-based. The conditions noted are these: in vitro, unpublished results.
Source text: as §2
The differences in the gut microbiota of Rnf5^−/− and WT mice before and during tumor formation highlighted a functionally coherent group of species that define a food web enriched for species encoding extensive glycosyl hydrolase activities. […]

Another assay has as its system MC-38 cells. Description: Growth of MC-38 colon cancer tumors in C57BL/6 mice given mucin or inulin. In kind it is in vivo, mouse.
Source text: as §1
Next, it was determined whether mucin or inulin are also able to impact growth of colon cancer cells, representative of a different tumor type. Growth of MC-38 cells injected to WT mice was attenuated by inulin but not mucin (FIG. 6B). […] Corresponding increase in CD4, CD8, CD45 and DC, including pDC and mDC and MHC-I expression on DC, was identified in tumors subjected to the MEKi+inulin treatment.

“Also recorded” adds a separate entry of the source.

In the case of Clostridium clostridioforme, in the assay with tumor growth [1], the “association of bacterial strain with tumor growth” value was “associated with inhibition of tumor growth”.

`O=C(O)CCCc1ccccc1` [4-phenylbutyrate]: the tumor growth entry in the assay with tumor growth [2] is “did not affect tumor growth”.

As to inulin, the melanoma growth entry with SW1 cells (SW1 cells in Tlr4−/− C3H/HeJ mice, supplemented diet from 14 days prior to inoculation) is on record as “failed to significantly attenuate melanoma growth”. Also, the “CD8+ T cells and TNF-α-producing tumor-infiltrating CD4+ T cells” value in the assay on SW1 cells (SW1 tumors in Tlr4−/− C3H/HeJ mice) is reported as “not”. For the same compound, the “tumor infiltrating immune cell phenotype” value in assay [3] (WT mice, tumor) is recorded as “increased tumor infiltration of immune cells”. Moreover, the “transcription of immune-related genes” value in assay [3] (shift to that seen in Rnf5−/− mice, albeit to a lower extent) was “induced a shift”. In addition, the melanoma tumor growth result with YUMM1.5 melanoma cells is recorded as “attenuate melanoma growth; also recorded: reduced tumor growth”; with YUMM1.5 melanoma cells (listed as Inulin) it was “effective inhibition of melanoma growth”. Moreover, the “communities generated in fecal cultivation” value in the assay on human fecal samples is on record as “generated communities similar to that of gastric mucin”. For the same compound, the “infiltration of MHC-I and MHC-I on DC cells” value with MC-38 cells (MC-38 tumors) is listed as “increase in the infiltration”. Also, the “growth of MC-38 cells” value in the assay on MC-38 cells (WT C57BL/6 mice, supplemented diet from 14 days prior to inoculation) is reported as “attenuated”.
